Reference: patent US20140005269A1, “POLYMERIC MATRIX OF POLYMER-LIPID NANOPARTICLES AS A PHARMACEUTICAL DOSAGE FORM” (priority 2010, published 2014)

Experiment: In vitro drug release, USP 32 apparatus II dissolution
Type: physicochemical
Conditions: pH 6.8 (standard buffer KH2PO4/NaOH)
Procedure: Drug release was assessed using a USP 32 apparatus II dissolution system (Erweka DT 700, Erweka GmbH, Heusenstamm, Germany). Temperature and stirring rate was at 37±0.5° C. and 50 rpm respectively while the dissolution media was 0.1N HCl, buffers pH 1.5 and 4.5. Samples were withdrawn at predetermined intervals and replaced with the same volume of fresh medium, and the quantity of L-dopa released was quantified using UV spectroscopy. In vitro drug release studies were also undertaken for E3 matrices formulated from IPBs in varying normalities of acetic acid in buffer pH 1.5 (standard buffer KCl/HCl), pH 4.5 (0.025M KH2PO4/H2PO4) and pH 6.8 (standard buffer KH2PO4/NaOH) was employed to observe the behavior of the matrices and not for drug release as the model drug L-dopa was unstable at such pH values.
The incorporation of polymer-lipid nanoparticles into the IPB was undertaken as described earlier via direct compression. However, the L-dopa-loaded polymer-lipid nanoparticles was incorporated instead of L-dopa alone while the in vitro drug release was assessed as described earlier.

stability of the model drug in dissolution medium: unstable
Structure (SMILES): N[C@@H](Cc1ccc(O)c(O)c1)C(=O)O [L-dopa, 3-(3,4-dihydroxyphenyl)-L-alanine]
